30 molecules from patent US20050197350A1, “Novel quinoline, tetrahydroquinazoline, and pyrimidine derivatives and methods of treatment related to the use thereof” (TAISHO PHARMACEUTICAL CO., LTD., priority 2003, published 2005) can be followed below.

The target in the experiment is MCH receptor (Homo sapiens, UniProt Q99705). Description: High throughput functional screening FLIPR/FDSS6000 (intracellular Ca2+ evoked by MCH). The class given is cell-based. The conditions noted are these: FLIPR/FDSS, antagonist activity vs 50 nM MCH, class by percent of control at 10^−7 M or IC50, read-out: class. An outline of the steps: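 For antagonist testing, compound-treated cells (30 min, 37 °C) were stimulated with 50 nM MCH and intracellular Ca2+ followed by Fluo4 fluorescence on FLIPR/FDSS6000. Receptor was a constitutively active, non-endogenous MCH receptor; dye loading 4 μM Fluo4-AM, 1 h, 37 °C.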

Where a name gives a salt, the structure may show the parent alone. Read-outs that look alike come from different tables or passages of the source. Some results are limits rather than exact numbers.

With `CCN(C)c1ccnc(N[C@H]2CC[C@@H](NC(=O)c3ccc(F)c(F)c3)CC2)n1` [Example 3226, N-{cis-4-[4-(Ethyl-methyl-amino)-pyrimidin-2-ylamino]-cyclohexyl}-3,4-difluoro-benzamide hydrochloride], the IC50 (table after the classification) is greater than 200 nM.
Turning to `CN(CCO)c1ccnc(N[C@H]2CC[C@@H](NC(=O)c3ccc(F)c(F)c3)CC2)n1` [Example 3227, 3,4-Difluoro-N-(cis-4-{4-[(2-hydroxy-ethyl)-methyl-amino]-pyrimidin-2-ylamino}-cyclohexyl)-benzamide hydrochloride], the IC50 (table after the classification) is greater than 200 nM.
For `Cc1cnc(N[C@H]2CC[C@@H](NC(=O)c3ccc(F)c(Cl)c3)CC2)nc1N(C)C` [Example 3228, 3-Chloro-N-[cis-4-(4-dimethylamino-5-methyl-pyrimidin-2-ylamino)-cyclohexyl]-4-fluoro-benzamide hydrochloride], for the setting “table after the classification”, the IC50 was less than 50 nM.
Regarding `CN(C)c1nc(N[C@H]2CC[C@@H](NC(=O)c3ccc(F)c(Cl)c3)CC2)ncc1F` [Example 3229, 3-Chloro-N-[cis-4-(4-dimethylamino-5-fluoro-pyrimidin-2-ylamino)-cyclohexyl]-4-fluoro-benzamide hydrochloride], the IC50 (table after the classification) is less than 50 nM.
On to `Cc1cc(N(C)C)nc(N[C@H]2CC[C@@H](NC(=O)c3ccc(F)c(Cl)c3)CC2)n1` [Example 3230, 3-Chloro-N-[cis-4-(4-dimethylamino-6-methyl-pyrimidin-2-ylamino)-cyclohexyl]-4-fluoro-benzamide hydrochloride], for which the IC50 (table after the classification) is less than 50 nM.
Take `CCc1cc(N(C)C)nc(N[C@H]2CC[C@@H](NC(=O)c3ccc(F)c(F)c3)CC2)n1` [Example 3231, N-[cis-4-(4-Dimethylamino-6-ethyl-pyrimidin-2-ylamino)-cyclohexyl]-3,4-difluoro-benzamide hydrochloride]: the IC50 (table after the classification) was 50 to 200 nM.
Turning to `CN(C)c1cc(N(C)C)nc(N[C@H]2CC[C@@H](NC(=O)c3ccc(F)c(F)c3)CC2)n1` [Example 3232, N-[cis-4-(4,6-Bis-dimethylamino-pyrimidin-2-ylamino)-cyclohexyl]-3,4-difluoro-benzamide hydrochloride], the IC50 (table after the classification) fell in the range of 50 to 200 nM.
Consider `CN(C)c1cc(Cl)nc(N[C@H]2CC[C@@H](NC(=O)c3cccnc3Oc3ccccc3)CC2)n1` [Example 3233, N-[cis-4-(6-Chloro-4-dimethylamino-pyrimidin-2-ylamino)-cyclohexyl]-2-phenoxy-nicotinamide hydrochloride], for which the IC50 (table after the classification) was greater than 200 nM.
With `CN(C)c1cc(Cl)nc(N[C@H]2CC[C@@H](NC(=O)c3ccc(F)c(F)c3)CC2)n1` [Example 3234, N-[cis-4-(6-Chloro-4-dimethylamino-pyrimidin-2-ylamino)-cyclohexyl]-3,4-difluoro-benzamide hydrochloride], for the setting “table after the classification”, the IC50 was greater than 200 nM.
For the molecule `Nc1cc(N[C@H]2CC[C@@H](NC(=O)c3ccc(F)c(F)c3)CC2)nc2ccccc12` [Example 3235, N-[cis-4-(4-Amino-quinolin-2-ylamino)-cyclohexyl]-3,4-difluoro-benzamide hydrochloride], the IC50 (table after the classification) is less than 50 nM.
Still for that read-out and setting: under `NC(=O)c1cc(N[C@H]2CC[C@@H](NC(=O)c3ccc(F)c(F)c3)CC2)nc2ccccc12` [Example 3236, 2-(cis-4-{[1-(3,4-Difluoro-phenyl)-methanoyl]-amino}-cyclohexylamino)-quinoline-4-carboxylic acid amide] stands greater than 200 nM.
With `O=C(N[C@H]1CC[C@@H](Nc2cc(C(F)(F)F)c3ccccc3n2)CC1)c1ccc(F)c(F)c1` [Example 3237, 3,4-Difluoro-N-[cis-4-(4-trifluoromethyl-quinolin-2-yl)-amino-cyclohexyl]-benzamide hydrochloride], the IC50 (table after the classification) was greater than 200 nM.
Same read-out and setting: with `Cc1cc(N[C@H]2CC[C@@H](NC(=O)c3ccc(F)c(F)c3)CC2)nc2ccccc12` [Example 3238, 3,4-Difluoro-N-[cis-4-(4-methyl-quinolin-2-ylamino)-cyclohexyl]-benzamide methanesulfonic acid] the figure was less than 50 nM; with `Cc1cc(N[C@H]2CC[C@@H](NC(=O)c3ccc(F)c(Cl)c3)CC2)nc2ccccc12` [Example 3239, 3-Chloro-4-fluoro-N-[cis-4-(4-methyl-quinolin-2-ylamino)-cyclohexyl]-benzamide methanesulfonic acid], less than 50 nM; with `COc1cccc(C(=O)N[C@H]2CC[C@@H](Nc3ccc4ccccc4n3)CC2)c1` [Example 3240, 3-Methoxy-N-[cis-4-(quinolin-2-ylamino)-cyclohexyl]-benzamide methanesulfonic acid], less than 50 nM.
`Cc1cnc(N[C@H]2CC[C@@H](NCC(=O)c3ccc(Cl)cc3)CC2)nc1N(C)C` [Example 3260, 1-(4-chlorophenyl)-2-[(cis-4-{[4-(dimethylamino)-5-methylpyrimidin-2-yl]amino}cyclohexyl)amino]ethanone]: the IC50 was in the range of 50 to 200 nM.
On to `Cc1cnc(N[C@H]2CC[C@@H](NCC(=O)c3ccc(F)c(F)c3)CC2)nc1N(C)C` [Example 3261, 1-(3,4-difluorophenyl)-2-[(cis-4-{[4-(dimethylamino)-5-methylpyrimidin-2-yl]amino}cyclohexyl)amino]ethanone], for which the IC50 is greater than 200 nM.
With `Cc1cnc(N[C@H]2CC[C@@H](NCC(=O)c3ccc(Br)cc3)CC2)nc1N(C)C` [Example 3262, 1-(4-bromophenyl)-2-[(cis-4-{[4-(dimethylamino)-5-methylpyrimidin-2-yl]amino}cyclohexyl)amino]ethanone], the IC50 is greater than 200 nM.
The same measure, in the same setting: under `Cc1cc(N(C)C)nc(N[C@H]2CC[C@@H](NC(=O)NC(C)(C)c3cc(C(F)(F)F)cc(C(F)(F)F)c3)CC2)n1` [Example 3263, N-{1-[3,5-bis(trifluoromethyl)phenyl]-1-methylethyl}-N′-(cis-4-{[4-(dimethylamino)-6-methylpyrimidin-2-yl]amino}-cyclohexyl)urea] stands 50 to 200 nM; under `Cc1cnc(N[C@H]2CC[C@@H](NC(=O)NC(C)(C)c3ccc(Cl)cc3)CC2)nc1N(C)C` [Example 3264, N-[1-(4-chlorophenyl)-1-methylethyl]-N′-(cis-4-{[4-(dimethylamino)-5-methylpyrimidin-2-yl]amino}cyclohexyl)urea], less than 50 nM; under `Cc1cc(N(C)C)nc(N[C@H]2CC[C@@H](NC(=O)NC(C)(C)c3ccc(Cl)cc3)CC2)n1` [Example 3265, N-[1-(4-chlorophenyl)-1-methylethyl]-N′-(cis-4-{[4-(dimethylamino)-6-methylpyrimidin-2-yl]amino}cyclohexyl)urea], 50 to 200 nM.
Regarding `Cc1cnc(N[C@H]2CC[C@@H](NC(=O)NC3(c4ccc(Cl)cc4)CC3)CC2)nc1N(C)C` [Example 3266, N-[1-(4-chlorophenyl)cyclopropyl]-N′-(cis-4-{[4-(dimethylamino)-5-methylpyrimidin-2-yl]amino}cyclohexyl)urea], the IC50 is less than 50 nM.
On to `Cc1cc(N(C)C)nc(N[C@H]2CC[C@@H](NC(=O)NC3(c4ccc(Cl)cc4)CC3)CC2)n1` [Example 3267, N-[1-(4-chlorophenyl)cyclopropyl]-N′-(cis-4-{[4-(dimethylamino)-6-methylpyrimidin-2-yl]amino}cyclohexyl)urea], for which the IC50 was less than 50 nM.
Take `Cc1cc(N(C)C)nc(N[C@H]2CC[C@@H](NC(=O)N(C)C(C)(C)c3cc(C(F)(F)F)cc(C(F)(F)F)c3)CC2)n1` [Example 3268, N-{1-[3,5-bis(trifluoromethyl)phenyl]-1-methylethyl}-N′-(cis-4-{[4-(dimethylamino)-6-methylpyrimidin-2-yl]amino}cyclohexyl)-N-methylurea]: the IC50 was greater than 200 nM.
As for `Cc1cnc(N[C@H]2CC[C@@H](NC(=O)N(C)C(C)(C)c3ccc(Cl)cc3)CC2)nc1N(C)C` [Example 3269, N-[1-(4-chlorophenyl)-1-methylethyl]-N′-(cis-4-{[4-(dimethylamino)-5-methylpyrimidin-2-yl]amino}cyclohexyl)-N-methylurea], the IC50 is less than 50 nM.
Still for that read-out and setting: with `Cc1cc(N(C)C)nc(N[C@H]2CC[C@@H](NC(=O)N(C)C(C)(C)c3ccc(Cl)cc3)CC2)n1` [Example 3270, N-[1-(4-chiorophenyl)-1-methylethyl]-N′-(cis-4-{[4-(dimethylamino)-6-methylpyrimidin-2-yl]amino}cyclohexyl)-N-methylurea] the figure was 50 to 200 nM.
On to `Cc1cnc(N[C@H]2CC[C@@H](NC(=O)N(C)C3(c4ccc(Cl)cc4)CC3)CC2)nc1N(C)C` [Example 3271, N-[1-(4-chlorophenyl)cyclopropyl]-N′-(cis-4-{[4-(dimethylamino)-5-methylpyrimidin-2-yl]amino}cyclohexyl)-N-methylurea], for which the IC50 was in the range of 50 to 200 nM.
Consider `Cc1cc(N(C)C)nc(N[C@H]2CC[C@@H](NC(=O)N(C)C3(c4ccc(Cl)cc4)CC3)CC2)n1` [Example 3272, N-[1-(4-chlorophenyl)cyclopropyl]-N′-(cis-4-{[4-(dimethylamino)-6-methylpyrimidin-2-yl]amino}cyclohexyl)-N-methylurea], for which the IC50 is greater than 200 nM.
For `Cc1cnc(N[C@H]2CC[C@@H](C(=O)NC(C)(C)c3ccc(Cl)cc3)CC2)nc1N(C)C` [Example 3273, cis-N-[1-(4-chlorophenyl)-1-methylethyl]-4-{[4-(dimethylamino)-5-methylpyrimidin-2-yl]amino}cyclohexanecarboxamide], the IC50 is 50 to 200 nM.
For the molecule `Cc1cc(N(C)C)nc(N[C@H]2CC[C@@H](C(=O)NC(C)(C)c3ccc(Cl)cc3)CC2)n1` [Example 3274, cis-N-[1-(4-chlorophenyl)-1-methylethyl]-4-{[4-(dimethylamino)-6-methylpyrimidin-2-yl]amino}cyclohexanecarboxamide], the IC50 was greater than 200 nM.
